Experimental data as given in US11000601B2, “Conjugated biological molecules, pharmaceutical compositions and methods” (OBI Pharma, Inc., priority 2016, dated 2021).
“And” between values parts separate entries of the source, which are not always exact repeats. Equal entries are not always repeated. Square brackets hold non-standard residues; d marks the D form. Peptide text beside a SMILES is read from it. * marks the point of attachment. Dolaproine = CO[C@@H]([C@@H]1CCCN1)[C@@H](C)C(=O)O; Dil = CC[C@H](C)[C@H](NC)[C@@H](CC(=O)O)OC; X1 = C[C@@H](N*)[C@@H](O)c1ccccc1; NMeV = CN[C@H](C(=O)O)C(C)C

System: MCF-7 (ATCC HTB-22) human breast adenocarcinoma
Test: Xenograft tumor model of human breast adenocarcinoma MCF-7 in nude mice: tumor volume, T/C
Type: in vivo
Settings: for Tumor Volume, individual mouse: mice No. 1-6
Procedure: In a xenograft tumor model of human breast adenocarcinoma, MCF-7 (ATCC HTB-22) cells were subcutaneously (SC) implanted (2.0×10^7 cells in 1:1 matrigel/media mixture at 0.2 mL/mouse) into the right flank of female athymic (nu/nu) nude mice. Supplemental injections of estradiol cyclopentyl propionate (100 μg/mouse) were administered subcutaneously between the scapulae twice weekly, from one week prior to cell implantation to study completion. Tumor-implanted mice were divided into eleven treatment groups, each group containing six animals, and test agent administrations were initiated one day after cell implantation (denoted as Day 1). 3.1 Test Substances and Dosing Pattern
Two control groups received intravenous injections of vehicle (25 mM Sodium Citrate, pH 6.5+100 mM NaCl) once weekly for either six weeks (group 1) or two weeks (group 2).
Human breast adenocarcinoma tumor cell line, MCF-7 (ATCC HTB-22, breast adenocarcinoma), was provided by the Sponsor. The tumor cells were prepared and cultured by the Sponsor (1×10^8 cells/mL), and 0.2 mL MCF-7 tumor cell inoculum containing 2×10^7 cells (mixture of matrigel and medium; 1:1) was implanted subcutaneously in the right flank of each mouse.
Female (nu/nu) nude mice aged 6-7 weeks obtained from BioLasco Taiwan (under Charles River Laboratories Licensee) were used. The animals were housed in individually ventilated cages (IVG, 36 Mini Isolator System). The allocation for 3-5 animals was 27×20×14 in cm. All animals were maintained in a hygienic environment under controlled temperature (20-24° C.) and humidity (30-70%) with 12-hour light/dark cycle. Free access to standard lab diet (Oriental Yeast Co., Ltd., Japan) and autoclaved tap water were granted. All aspects of this work including housing, experimentation, and animal disposal were performed in general accordance with the “Guide for the Care and Use of Laboratory Animals: Eighth Edition” (National Academies Press, Washington, D.C., 2011) in our AAALAC-accredited laboratory animal facility. In addition, the animal care and use protocol was reviewed and approved by the IACUC at Eurofins Panlabs Taiwan, Ltd.
The tumor volumes, body weights, mortality, and signs of overt toxicity were monitored and recorded twice weekly for 77 days. Tumor volume (mm^3) was calculated according to the formula for a prolate ellipsoid: length (mm)×[width (mm)]^2×0.5. Tumor growth inhibition was calculated as T/C (treatment/control)×100%. A T/C value≤42% was considered significant anti-tumor activity. Two-way ANOVA followed by Bonferroni test was used to ascertain the statistical significance of groups compared to respective vehicle control (*p<0.05).

[1] = 0.057 mg/kg × 6, IV, once weekly, Day 1
[2] = 0.057 mg/kg × 6, IV, once weekly, Day 5
[3] = 0.057 mg/kg × 6, IV, once weekly, Day 8
[4] = 0.057 mg/kg × 6, IV, once weekly, Day 12
[5] = 0.057 mg/kg × 6, IV, once weekly, Day 15
[6] = 0.057 mg/kg × 6, IV, once weekly, Day 19
[7] = 0.057 mg/kg × 6, IV, once weekly, Day 22
[8] = 0.057 mg/kg × 6, IV, once weekly, Day 26
[9] = 0.057 mg/kg × 6 IV once weekly, Day 29
[10] = 0.057 mg/kg × 6 IV once weekly, Day 33
[11] = 0.057 mg/kg × 6 IV once weekly, Day 36
[12] = 0.057 mg/kg × 6 IV once weekly, Day 40
[13] = 0.057 mg/kg × 6 IV once weekly, Day 43
[14] = 0.057 mg/kg × 6 IV once weekly, Day 46
[15] = 0.057 mg/kg × 6 IV once weekly, Day 49
[16] = Gr. 11, 0.057 mg/kg × 6, IV, once weekly, Day 53
[17] = Gr. 11, 0.057 mg/kg × 6, IV, once weekly, Day 56
[18] = Gr. 11, 0.057 mg/kg × 6, IV, once weekly, Day 60
[19] = Gr. 11, 0.057 mg/kg × 6, IV, once weekly, Day 63
[20] = Gr. 11, 0.057 mg/kg × 6, IV, once weekly, Day 67
[21] = Gr. 11, 0.057 mg/kg × 6, IV, once weekly, Day 70
[22] = Gr. 11, 0.057 mg/kg × 6, IV, once weekly, Day 74
[23] = Gr. 11, 0.057 mg/kg × 6, IV, once weekly, Day 77

CC[C@H](C)[C@@H]([C@@H](CC(=O)N1CCC[C@H]1[C@H](OC)[C@@H](C)C(=O)N[C@H](C)[C@@H](O)c1ccccc1)OC)N(C)C(=O)[C@@H](NC(=O)[C@@H](NC)C(C)C)C(C)C [MMAE, monomethyl auristatin E] (H-[NMeV]V[Dil][Dolaproine]-X1) was tested, and the “anti-tumor activity (in words)” value (0.057 mg/kg IV once weekly for six weeks, during and for a short time after the dosing phase) was “modest-to-moderate anti-tumor activity”, the “% T/C” value [1] was 101% and the “Tumor Volume, Mean” value [1] was 161 mm^3. For the same molecule, the “Tumor Volume, single mouse (No. 1-6)” value [1] was 141 mm^3 and 139 mm^3 and 162 mm^3 and 186 mm^3 and 152 mm^3 and 188 mm^3, the “% T/C” value [2] was 97% and the “Tumor Volume, Mean” value [2] was 119 mm^3. For the same molecule, the “Tumor Volume, single mouse (No. 1-6)” value [2] was 110 mm^3 and 123 mm^3 and 145 mm^3 and 104 mm^3 and 106 mm^3 and 128 mm^3, the “% T/C” value [3] was 96% and the “Tumor Volume, Mean” value [3] was 132 mm^3. The “Tumor Volume, single mouse (No. 1-6)” value [3] was 121 mm^3 and 125 mm^3 and 139 mm^3 and 131 mm^3 (2×) and 146 mm^3, the “% T/C” value [4] was 71% and the “Tumor Volume, Mean” value [4] was 114 mm^3. For the same molecule, the “Tumor Volume, single mouse (No. 1-6)” value [4] was 101 mm^3 and 104 mm^3 and 133 mm^3 and 115 mm^3 and 103 mm^3 and 129 mm^3, the “% T/C” value [5] was 72% and the “Tumor Volume, Mean” value [5] was 116 mm^3. The “Tumor Volume, single mouse (No. 1-6)” value [5] was 102 mm^3 and 101 mm^3 and 127 mm^3 and 105 mm^3 and 137 mm^3 and 121 mm^3, the “% T/C” value [6] was 64% and the “Tumor Volume, Mean” value [6] was 130 mm^3. For the same molecule, the “Tumor Volume, single mouse (No. 1-6)” value [6] was 137 mm^3 and 113 mm^3 and 125 mm^3 and 121 mm^3 and 148 mm^3 and 135 mm^3, the “% T/C” value [7] was 61% and the “Tumor Volume, Mean” value [7] was 140 mm^3. The “Tumor Volume, single mouse (No. 1-6)” value [7] was 123 mm^3 and 137 mm^3 (2×) and 138 mm^3 and 164 mm^3 and 143 mm^3, the “% T/C” value [8] was 54% and the “Tumor Volume, Mean” value [8] was 143 mm^3. For the same molecule, the “Tumor Volume, single mouse (No. 1-6)” value [8] was 135 mm^3 and 127 mm^3 and 119 mm^3 and 154 mm^3 and 179 mm^3 and 144 mm^3, the “% T/C” value [9] was 54% and the “Tumor Volume, Mean” value (0.057 mg/kg × 6 IV once weekly, Day 29, group mean) was 151 mm^3. For the same molecule, the “Tumor Volume, individual mouse” value [9] was 146 mm^3 and 131 mm^3 and 119 mm^3 and 156 mm^3 and 194 mm^3 and 160 mm^3, the “% T/C” value [10] was 55% and the “Tumor Volume, Mean” value (0.057 mg/kg × 6 IV once weekly, Day 33, group mean) was 168 mm^3. For the same molecule, the “Tumor Volume, individual mouse” value [10] was 162 mm^3 and 152 mm^3 and 133 mm^3 and 168 mm^3 and 216 mm^3 and 177 mm^3, the “% T/C” value [11] was 59% and the “Tumor Volume, Mean” value (0.057 mg/kg × 6 IV once weekly, Day 36, group mean) was 192 mm^3. For the same molecule, the “Tumor Volume, individual mouse” value [11] was 171 mm^3 and 154 mm^3 and 152 mm^3 and 201 mm^3 and 256 mm^3 and 218 mm^3, the “% T/C” value [12] was 61% and the “Tumor Volume, Mean” value (0.057 mg/kg × 6 IV once weekly, Day 40, group mean) was 210 mm^3. For the same molecule, the “Tumor Volume, individual mouse” value [12] was 184 mm^3 and 186 mm^3 and 156 mm^3 and 223 mm^3 and 285 mm^3 and 226 mm^3, the “% T/C” value [13] was 63% and the “Tumor Volume, Mean” value (0.057 mg/kg × 6 IV once weekly, Day 43, group mean) was 232 mm^3. The “Tumor Volume, individual mouse” value [13] was 186 mm^3 (2×) and 239 mm^3 and 242 mm^3 and 296 mm^3 and 240 mm^3, the “% T/C” value [14] was 65% and the “Tumor Volume, Mean” value (0.057 mg/kg × 6 IV once weekly, Day 46, group mean) was 256 mm^3. For the same molecule, the “Tumor Volume, individual mouse” value [14] was 204 mm^3 and 261 mm^3 and 222 mm^3 and 258 mm^3 and 332 mm^3 and 259 mm^3, the “% T/C” value [15] was 64% and the “Tumor Volume, Mean” value (0.057 mg/kg × 6 IV once weekly, Day 49, group mean) was 272 mm^3. For the same molecule, the “Tumor Volume, individual mouse” value [15] was 210 mm^3 and 270 mm^3 and 235 mm^3 and 301 mm^3 and 351 mm^3 and 264 mm^3, the “% T/C (tumor volume, treatment/control)” value [16] was 64% and the “Tumor Volume, Mean” value [16] was 290 mm^3. The “Tumor Volume, individual animals No. 1-6” value [16] was 216 mm^3 and 291 mm^3 and 268 mm^3 and 319 mm^3 and 373 mm^3 and 270 mm^3, the “% T/C (tumor volume, treatment/control)” value [17] was 65% and the “Tumor Volume, Mean” value [17] was 323 mm^3. For the same molecule, the “Tumor Volume, individual animals No. 1-6” value [17] was 305 mm^3 and 249 mm^3 and 325 mm^3 and 329 mm^3 and 399 mm^3 and 328 mm^3, the “% T/C (tumor volume, treatment/control)” value [18] was 65% and the “Tumor Volume, Mean” value [18] was 357 mm^3. For the same molecule, the “Tumor Volume, individual animals No. 1-6” value [18] was 312 mm^3 and 262 mm^3 and 383 mm^3 and 373 mm^3 and 453 mm^3 and 358 mm^3, the “% T/C (tumor volume, treatment/control)” value [19] was 71% and the “Tumor Volume, Mean” value [19] was 421 mm^3. The “Tumor Volume, individual animals No. 1-6” value [19] was 286 mm^3 and 422 mm^3 and 494 mm^3 and 418 mm^3 and 496 mm^3 and 412 mm^3, the “% T/C (tumor volume, treatment/control)” value [20] was 71% and the “Tumor Volume, Mean” value [20] was 469 mm^3. For the same molecule, the “Tumor Volume, individual animals No. 1-6” value [20] was 307 mm^3 and 458 mm^3 and 598 mm^3 and 455 mm^3 and 505 mm^3 and 489 mm^3, the “% T/C (tumor volume, treatment/control)” value [21] was 73% and the “Tumor Volume, Mean” value [21] was 512 mm^3. The “Tumor Volume, individual animals No. 1-6” value [21] was 333 mm^3 and 591 mm^3 and 603 mm^3 and 493 mm^3 and 523 mm^3 and 528 mm^3, the “% T/C (tumor volume, treatment/control)” value [22] was 79% and the “Tumor Volume, Mean” value [22] was 584 mm^3. For the same molecule, the “Tumor Volume, individual animals No. 1-6” value [22] was 365 mm^3 and 625 mm^3 and 681 mm^3 and 570 mm^3 and 568 mm^3 and 695 mm^3, the “% T/C (tumor volume, treatment/control)” value [23] was 83% and the “Tumor Volume, Mean” value [23] was 736 mm^3. The “Tumor Volume, individual animals No. 1-6” value [23] was 410 mm^3 and 922 mm^3 and 760 mm^3 and 632 mm^3 and 807 mm^3 and 887 mm^3.
